Data reported in patent US20030157670A1 (priority 2002, published 2003).

Tests used:
[1] = tested on: capsaicin decomposing/synthesizing enzyme (purified enzyme); type: biochemical, Streptomyces mobaraensis IFO 13819
[2] = tested on: capsaicin decomposing/synthesizing enzyme; type: biochemical, Streptomyces mobaraensis IFO 13819
[3] = tested on: capsaicin decomposing/synthesizing enzyme (purified enzyme from Streptomyces mobaraensis IFO13819); experiment: Synthesis of capsaicin analogs from vanillylamine and fatty acids with the enzyme of the invention; type: biochemical; details: vanillylamine hydrochloride 10 mM, fatty acid 100 mM, 30 U enzyme, water/n-hexane, 37° C., 8 days, 0.5 mM CoCl2
Protocol: Next, capsaicin analogs were synthesized by using the capsaicin decomposing/synthesizing enzyme (purified enzyme from Streptomyces mobaraensis IFO13819) according to the present invention.
(§1) The reaction temperature was 37° C.
(§2) As a comparative example, aminoacylase was used. The resulting capsaicin analogs were quantitatively measured by the HPLC analysis of the hexane phases.

aminoacylase = experiment: Synthesis of capsaicin analogs from vanillylamine and fatty acids with aminoacylase (comparative example); type: biochemical; details: vanillylamine hydrochloride 10 mM, fatty acid 100 mM, water/n-hexane, 37° C., 8 days, 0.5 mM CoCl2
Protocol: as §1, §2

SMILES | effect on capsaicin hydrolysis activity of the purified enzyme [1] | residual activity, cobalt ions added versus not added [2] | Synthesis of capsaicin analogs, Capsaicin decomposing synthesizing enzyme of the invention [3] [mM] | Synthesis of capsaicin analogs, Aminocylase (aminoacylase) [mM]
[Cl-].[Cl-].[Co+2] [CoCl2] | enhanced | higher residual activity |  | 
CCCCCCCCCCCC(=O)O [Lauric acid] |  |  | 1.25 | 0.051
CCCCCCCCCCCCCC(=O)O [Myristic acid] |  |  | 0.24 | 
